Experimental data reported in the NIST ThermoML archive (doi:10.1021/je700245a).

Assay: xn = mol fraction of the nth substance listed
Conditions: 101 kPa, Liquid; for speed of sound: Sing-around technique in a fixed-path interferometer

CN(CCO)CCO [N-methyldiethanolamine] + CCO
Conditions	mass density [kg/m3]	speed of sound [m/s]
288.15 K, x1 = 0.0049	797.34	1183.1
288.15 K, x1 = 0.0253	810.93	1201.7
288.15 K, x1 = 0.0524	826.23	1222.5
288.15 K, x1 = 0.102	855.32	1260.9
288.15 K, x1 = 0.1629	883.86	1301
288.15 K, x1 = 0.2474	916.48	1353
288.15 K, x1 = 0.3713	952.15	1415
288.15 K, x1 = 0.4806	977.2	1460
288.15 K, x1 = 0.5506	991.1	1486
288.15 K, x1 = 0.7035	1013.7	1536
288.15 K, x1 = 0.7916	1024.1	1557
288.15 K, x1 = 0.8688	1032.69	1573.2
288.15 K, x1 = 0.9415	1038.68	1588.4
288.15 K, x1 = 1	1044.32	1598.8
293.15 K, x1 = 0.0049	793.08	1166
293.15 K, x1 = 0.0253	806.7	1184.9
293.15 K, x1 = 0.0524	822.03	1205.9
293.15 K, x1 = 0.102	850.46	1244.5
293.15 K, x1 = 0.1629	879	1286
293.15 K, x1 = 0.2474	911.75	1338
293.15 K, x1 = 0.3713	947.5	1399.7
293.15 K, x1 = 0.4806	973.1	1444
293.15 K, x1 = 0.5506	986.7	1470
293.15 K, x1 = 0.7035	1009.24	1520
293.15 K, x1 = 0.7916	1019.88	1542
293.15 K, x1 = 0.8688	1028.4	1557.7
293.15 K, x1 = 0.9415	1034.96	1572.9
293.15 K, x1 = 1	1040.6	1583.1
298.15 K, x1 = 0.0049	788.79	1149.2
298.15 K, x1 = 0.0253	802.07	1168
298.15 K, x1 = 0.0524	817.31	1189.3
298.15 K, x1 = 0.102	845.79	1228.1
298.15 K, x1 = 0.1629	874.36	1272.9
298.15 K, x1 = 0.2474	907.18	1325
298.15 K, x1 = 0.3713	942.7	1384.6
298.15 K, x1 = 0.4806	968.28	1429.2
298.15 K, x1 = 0.5506	982.08	1457
298.15 K, x1 = 0.7035	1005.04	1500
298.15 K, x1 = 0.7916	1015.3	1522
298.15 K, x1 = 0.8688	1024.2	1538
298.15 K, x1 = 0.9415	1031.19	1553
298.15 K, x1 = 1	1036.83	1564
303.15 K, x1 = 0.0049	784.48	1132.3
303.15 K, x1 = 0.0253	797.45	1151.2
303.15 K, x1 = 0.0524	812.97	1172.7
303.15 K, x1 = 0.102	841.06	1211.8
303.15 K, x1 = 0.1629	869.83	1257.3
303.15 K, x1 = 0.2474	902.4	1310
303.15 K, x1 = 0.3713	938.24	1369.4
303.15 K, x1 = 0.4806	963.57	1414
303.15 K, x1 = 0.5506	977.52	1439
303.15 K, x1 = 0.7035	1000.62	1484.3
303.15 K, x1 = 0.7916	1011.24	1505.6
303.15 K, x1 = 0.8688	1019.64	1520.8
303.15 K, x1 = 0.9415	1027.42	1535
303.15 K, x1 = 1	1033.06	1546
308.15 K, x1 = 0.0049	779.2	1114.8
308.15 K, x1 = 0.0253	792.51	1134.5
308.15 K, x1 = 0.0524	807.85	1156.3
308.15 K, x1 = 0.102	835.99	1195.6
308.15 K, x1 = 0.1629	864.64	1241.5
308.15 K, x1 = 0.2474	897.2	1293
308.15 K, x1 = 0.3713	933.17	1354.1
308.15 K, x1 = 0.4806	958.75	1398.8
308.15 K, x1 = 0.5506	972.75	1423.8
308.15 K, x1 = 0.7035	996.08	1468.9
308.15 K, x1 = 0.7916	1006.79	1490.3
308.15 K, x1 = 0.8688	1015.81	1506.2
308.15 K, x1 = 0.9415	1023.63	1520.4
308.15 K, x1 = 1	1029.26	1531
313.15 K, x1 = 0.0049	775.41	1098.8
313.15 K, x1 = 0.0253	788.32	1117.9
313.15 K, x1 = 0.0524	803.95	1139.8
313.15 K, x1 = 0.102	831.61	1179.5
313.15 K, x1 = 0.1629	860.34	1225.8
313.15 K, x1 = 0.2474	892.65	1278
313.15 K, x1 = 0.3713	928.65	1339
313.15 K, x1 = 0.4806	954	1383.7
313.15 K, x1 = 0.5506	967.98	1408.7
313.15 K, x1 = 0.7035	991.6	1453.6
313.15 K, x1 = 0.7916	1002.49	1475.1
313.15 K, x1 = 0.8688	1011.97	1491.5
313.15 K, x1 = 0.9415	1019.82	1506.1
313.15 K, x1 = 1	1025.45	1516
